Assay [1] has as its system MPTP-injected C57BL/6 mice. Put plainly: MPTP-injected sub-acute PD mouse model (pole test, rotarod, TH immunohistochemistry). It counts as in vivo. On the procedure: Animals were allowed at least 1 week of acclimatization before being subjected to the study and were housed in a regulated environment with a 12-h/12-h light/dark cycle. Food and water were provided ad libitum. The animal experiment was carried out in accordance with the National Institutes of Health Guide for the Care and Use of Laboratory Animals (NIH Publications No. 80–23; revised 1996). All procedures for handling mice were carried out in accordance with “Principles of Laboratory Animal Care” and the Animal Care and Use guidelines of Kyung Hee University, Seoul, Korea (KHSASP-20-163).
MPTP was dissolved in distilled water and injected intraperitoneally for five days from day 10 of the 21-day experiment period. Vuti or rasagiline was administered via oral gavage for 21 days. Vehicles for both Vuti and MPTP (distilled water) were administered to all mice. Mice were randomly divided for all studies. For the first set of studies shown in Fig. 3, each group consisted of 5 animals.
To determine forelimb and hindlimb motor coordination and balance, we performed the rotarod test as described previously. Also, the pole test was performed to measure bradykinesia. For the rotarod test, the animals were pre-trained on the rotating bar of a rotarod unit set (LE 8500, Letica, Spain) on days 18 and 19 before the test on day 20. During pre-training, three trials per day were performed (5 rpm rotation speed on the first day, 15 rpm rotation speed on the second day). Mice were kept on the rotating bar (7.3-cm diameter) for 5 min on each trial. On day 20, the time spent on the rotating bar at 20 rpm, which was defined as the latent period, was recorded. Performance was recorded as 300 s if the latent period exceeded 300 s. Mice had at least 5 min of rest between trials to reduce stress and fatigue. Each animal underwent three test trials, and the mean of the test results was subjected to statistical analysis. For the pole test, mice were held on the top of the pole (diameter 8 mm, height 55 cm, with a rough surface). The time to land down and place four fee on the floor was recorded as the time for locomotion activity (T-LA).
On day 21, mice were anesthetized with sodium pentobarbital (50 mg/kg intraperitoneally) and transcardially perfused with saline containing 0.5% sodium nitrate and heparin (10 U/mL) and then fixed with 4% PFA in 0.1 M phosphate-buffer (PB, pH 7.2). Dissected brains were post-fixed overnight in buffered 4% PFA at 4 °C and stored in a 30% sucrose solution until they sank. Brains were cryosectioned into 30 μm thick coronal sections in a Cryostat (Microsystems AG, Leica, Wetzlar, Germany) and stored until use at 4℃ in a cryoprotectant (25% ethylene glycol, 25% glycerol, 0.2 M PB, and water). All sections were collected in six separate series and processed for immunostaining.
Free-floating brain sections were processed with the avidin-biotin peroxidase complex (ABC) complex (Vector Laboratories, Burlingame, CA, USA) method. Briefly, brain sections were incubated with primary rabbit anti-TH antibodies (1:1000; Pel-Freez Biologicals, Rogers, AR, USA) overnight at 4 °C, with biotinylated anti-rabbit IgG (1:400) for 1 h at room temperature, and then with the ABC solution (1:1:200) for 1 h at room temperature. The immunoperoxidase signals of TH was detected by incubating sections with 0.5 mg/ml 3,3′-diaminobenzidine (Sigma, St. Louis, MO, USA) in 0.1 M PB containing 0.003% H2O2. Stained brain sections were mounted on gelatin-coated slides and imaged under a bright-field microscope (Olympus Optical, Tokyo, Japan). TH-positivity in the ST was measured by the optical density of TH-positive fibers at x40 magnification using ImageJ software (National Institutes of Health, Bethesda, MD, USA). TH-positive cells in the SNpc in brain tissue Sect. (5 sections/series) were counted at x100 magnification as previously described. […]

Assay [2] addresses T1, MAO-B (Homo sapiens, UniProt P27338).
T1 sequence (P27338 1-520): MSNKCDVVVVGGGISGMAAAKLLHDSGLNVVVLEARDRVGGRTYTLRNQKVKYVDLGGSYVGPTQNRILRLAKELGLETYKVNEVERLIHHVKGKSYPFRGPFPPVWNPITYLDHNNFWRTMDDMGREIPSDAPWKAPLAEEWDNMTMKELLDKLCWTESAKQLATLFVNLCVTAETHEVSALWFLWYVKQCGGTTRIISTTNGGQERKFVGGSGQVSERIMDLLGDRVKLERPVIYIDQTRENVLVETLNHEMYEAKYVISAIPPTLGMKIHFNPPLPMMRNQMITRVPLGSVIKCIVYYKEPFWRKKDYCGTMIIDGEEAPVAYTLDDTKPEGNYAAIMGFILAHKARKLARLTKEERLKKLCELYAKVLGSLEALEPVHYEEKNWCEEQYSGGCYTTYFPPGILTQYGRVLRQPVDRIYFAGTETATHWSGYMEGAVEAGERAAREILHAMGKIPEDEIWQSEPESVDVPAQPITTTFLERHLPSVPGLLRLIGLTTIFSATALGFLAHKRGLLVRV
In words: HRP/Amplex red based MAO-B enzyme activity assay. The settings on record: read-out: IC50, MAO-B assay, HRP/AR method. It counts as biochemical. On the procedure:
(§1) MAO-A or MAO-B enzyme solutions were prepared by diluting 10 µL of a 2.5 mg/mL MAO-A or MAO-B stock into 10 mL of 50 mM sodium phosphate buffer (pH 7.4). A substrate assay mixture was then prepared by combining benzylamine (for MAO-B) or tyramine (for MAO-A) from a 100 mM stock (200 µL in 10 mL phosphate buffer, final concentration 1 mM) with 100 µL of a 20 mM AR reagent stock (final concentration 0.1 mM) and 100 µL of a 200 U/mL HRP stock (final concentration 1 U/mL) in 10 mL phosphate buffer. […] Next, 50 µL of the substrate assay mixture was added, and the reaction was carried out at 37 °C for 60 min. The production of resorufin was quantified by fluorescence measurement (excitation at 540 nm and emission at 580 nm).

Assay [3] deals with T2, MAO-A (Homo sapiens, UniProt P21397).
T2 sequence (P21397 1-527): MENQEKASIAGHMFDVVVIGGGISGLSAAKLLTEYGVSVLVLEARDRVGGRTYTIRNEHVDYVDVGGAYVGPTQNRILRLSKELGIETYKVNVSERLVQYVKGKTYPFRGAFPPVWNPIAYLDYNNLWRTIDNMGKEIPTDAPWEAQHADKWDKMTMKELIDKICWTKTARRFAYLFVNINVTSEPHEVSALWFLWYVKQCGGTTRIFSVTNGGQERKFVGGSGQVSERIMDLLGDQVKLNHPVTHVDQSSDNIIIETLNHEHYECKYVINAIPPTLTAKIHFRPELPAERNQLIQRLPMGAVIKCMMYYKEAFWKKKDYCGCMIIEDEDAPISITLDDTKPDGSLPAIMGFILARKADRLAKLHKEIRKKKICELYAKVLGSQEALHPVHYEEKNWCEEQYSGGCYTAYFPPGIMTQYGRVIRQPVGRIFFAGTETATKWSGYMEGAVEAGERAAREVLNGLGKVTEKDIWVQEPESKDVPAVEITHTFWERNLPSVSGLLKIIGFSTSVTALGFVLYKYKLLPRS
In words: ROS Glo based MAO-A enzyme activity assay. The conditions noted are these: printed as 'separate MAO-B assay' within the MAO-A panel (b); read-out: IC50, ROS-Glo method, panel (b). It counts as biochemical. On the procedure:
(§2) An enzyme solution was prepared by diluting 10 µL of a 2.5 mg/mL MAO-A or MAO-B stock in 10 mL of 50 mM sodium phosphate buffer (pH 7.4). A substrate solution was prepared by diluting 200 µL of a 100 mM benzylamine (or tyramine) stock in 10 mL phosphate buffer to achieve a final concentration of 1 mM. For each 96-well plate experiment, 12.5 µL of a 1× H2O2 probe solution was added to 1 mL of the probe dilution buffer from the ROS Glo™ kit. Separately, 40 µL of cysteine and enhancer were diluted into 4 mL of Luciferin solution. In each well, 49 µL of the enzyme solution was dispensed, followed by 1 µL of the test compound, and incubated for 30 min. Then, 49 µL of the substrate solution was added, and the reaction proceeded at 37 °C for 60 min. Next, 10 µL of the H2O2 probe solution was added and incubated for 15 min. Subsequently, 40 µL of a luciferin solution containing cysteine and an enhancer was added, followed by an additional 30-minute incubation at 37 °C. Luminescence was subsequently recorded using a microplate luminescence reader (SpectraMax i3, Molecular Devices).

Assay [4] addresses T2, MAO-A. Put plainly: HRP/Amplex red based MAO-A enzyme activity assay. It counts as biochemical. The conditions noted are these: read-out: IC50, MAO-A assay, HRP/AR method. On the procedure: as §1
For assay [5], the target named is T1, MAO-B. Put plainly: ROS Glo based MAO-B enzyme activity assay. The class given is biochemical. The settings on record: read-out: IC50, MAO-B assay, ROS-Glo method. The procedure:
as §2, with “Then, 49 µL of the substrate solution was added, and the reaction proceeded at 37 °C for 60 min.” left out, “Subsequently, 40 µL of a luciferin solution containing cysteine and an enhancer was added, followed by an additional 30-minute incubation at 37 °C.” left out

Where [6] appears, read: MPTP mice, Vuti 1, 50, 100 mg/kg/day or rasagiline 0.1 mg/kg/day orally for 21 days.

Molecules are shown by their SMILES.

With `CN1CC=C(c2ccccc2)CC1` [MPTP, 1-methyl-4-phenyl-1,2,3,6-tetrahydropyridine, reference compound], the “latency time to reach the floor (T-LA) in the pole test” value in assay [1] (MPTP 30 mg/kg/day i.p. for 5 days, no drug, vs 5.2 ± 0.9 s vehicle-only) is 9.6 ± 2.1 s. Further, the “latency to fall in the rotarod test” value in assay [1] (MPTP 30 mg/kg/day i.p. for 5 days, no drug, vs 196.4 ± 77.3 s vehicle-only) was found to be 63.5 ± 34.5 s.
For the molecule `C#CCN[C@@H]1CCc2ccccc21` [rasagiline, Rasagiline, reference compound], in assay [1] (setting [6]), the “effect on T-LA in the pole test” value is on record as “significantly normalized” and the “effect on latency to fall in the rotarod test” value is on record as “significantly normalized”.
As to `CC1(C)C=Cc2c(ccc3c2OC[C@@H](c2ccc(O)cc2O)C3)O1` [Glabridin], the IC50 is 7.29 µM at MAO-B [2], 12 µM at MAO-A [3], 26.8 µM at MAO-A [4] and 15.4 µM at MAO-B [5].

Values taken from PMC12535076, “Neurotherapeutic effects of Vutiglabridin as a Paraoxonase-2 modulator in preclinical models of Parkinson’s disease” (Molecular Neurodegeneration, 2025).
